In ChEMBL document CHEMBL1152057, “A note of caution in the use of receptor binding assays to screen marine organisms: the action of halistanol trisulphate on adenosine receptors” (Bioorg Med Chem Lett, 1992):

What was measured:
Adenosine receptor A1 [1] = biological target: T1, Adenosine receptor A1 (Rattus norvegicus, UniProt P25099); assay: Agonistic activity against adenosine A1 receptor; type: functional
T1 sequence (P25099 whole entry): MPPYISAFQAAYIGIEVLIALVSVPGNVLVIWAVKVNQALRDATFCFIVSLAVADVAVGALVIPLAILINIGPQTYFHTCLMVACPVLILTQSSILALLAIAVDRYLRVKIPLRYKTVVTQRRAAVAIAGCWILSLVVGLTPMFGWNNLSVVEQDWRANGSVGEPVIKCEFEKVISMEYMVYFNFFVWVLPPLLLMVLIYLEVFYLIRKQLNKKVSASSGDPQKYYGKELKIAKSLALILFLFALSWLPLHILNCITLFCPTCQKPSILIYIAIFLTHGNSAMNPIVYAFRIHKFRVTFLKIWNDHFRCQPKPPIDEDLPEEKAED

[2] = biological target: T2, Adenosine receptor A1 (Rattus norvegicus) (UniProt P25099); assay: Bmax value for adenosine A1 receptor binding at 145 uM
T2 sequence (whole entry): T1 sequence (P25099 whole entry)

[3] = biological target: T2, Adenosine receptor A1 (Rattus norvegicus); assay: Bmax value for adenosine A1 receptor binding at 14.5 uM
Adenosine receptor A1 [4] = biological target: T1, Adenosine receptor A1; assay: Kd value for adenosine A1 receptor binding at 145 uM
Adenosine receptor A1 [5] = biological target: T1, Adenosine receptor A1; assay: Kd value for adenosine A1 receptor binding at 14.5 uM

Structure (SMILES): CC(CCC(C)C(C)(C)C)C1CC[C@H]2[C@@H]3C[C@H](OS(=O)(=O)O)C4C[C@H](OS(=O)(=O)O)[C@@H](OS(=O)(=O)O)CC4(C)[C@H]3CCC12C (stereo partly specified)
- IC50 (Adenosine receptor A1 [1]): 120000 nM
- Bmax [2]: 319 fmol/mg
- Bmax [3]: 346 fmol/mg
- Kd (Adenosine receptor A1 [4]): 10.6 nM
- Kd (Adenosine receptor A1 [5]): 1.39 nM

Structure (SMILES): COc1cc(-c2oc3c(OC)cc(CCCO)cc3c2C=O)ccc1O
- IC50 (Adenosine receptor A1 [1]): 17 nM
